Values after ≈ are worked out from the molar mass of the structure shown. Where two headings read alike, the source gives them in different places.
Tests used:
Candida albicans = settings: cited from earlier work
Gardnerella vaginalis [1] = test: MIC against Gardnerella vaginalis (ATCC 14018 and 11 clinical isolates), standard two-fold dilution; format: cell-based; settings: for NUMBER OF STRAINS WITH MIC OF 8: MIC 8 mcg/ml; for NUMBER OF STRAINS WITH MIC OF 16: MIC 16 mcg/ml; for NUMBER OF STRAINS WITH MIC OF 32: MIC 32 mcg/ml; for NUMBER OF STRAINS WITH MIC OF 64: MIC 64 mcg/ml; for NUMBER OF STRAINS WITH MIC OF 4: MIC 4 mcg/ml
Description: The strains were grown on Casman medium (Difco) plus 5% (v/v) whole rabbit blood and 0.15 (v/v) lysed rabbit blood. Inoculum size: approximately 10^4 colony forming units per spot. Incubation in an anaerobic hood: 48 hours at 37° C.

Trichomonas vaginalis = settings: cited from earlier work
yeasts = settings: cited from earlier work
Gardnerella vaginalis [2] = settings: cited from earlier work
[3] = test system: fungi, including filamentous fungi (e.g., Trichophyton mentagrophytes) and yeasts e.g., Candida albicans; settings: in vitro; cited from earlier work
[4] = test system: Candida albicans strain SKF 2270; test: Topical treatment of yeast vaginal infection in ovariectomized rats; format: in vivo, rat; settings: topical intravaginal; for Mean log10 CFU/smear sample ± SD: twice daily for three days, untreated 3.43 ± 0.55, vehicle 3.74 ± 0.60
Description: The effectiveness of purpuromycin in the topical treatment of yeast vaginal infection was also tested in ovariectomized rats (Charles River) treated subcutaneously with 4 mg of estradiol benzoate approximately two weeks after ovariectomy. Five days later they were inoculated intravaginally with approximately 5×10^6 colony forming units (CFU) of Candida albicans strain SKF 2270 in 25 microliters of Nutrient Broth (no.2, Oxoid) containing 15% (vol/vol) of glycerol. Topical intravaginal therapy was twice daily for three days, starting one day after infection, with 100 microliters of a purpuromycin suspension in a mixture of 10:90 DMSO-polyethylene glycol 400, corresponding to 2 or 5 mg/rat/treatment. The day after the last treatment, vaginal smear samples (calibrated 10 microliter loops) were diluted and plated for viable organism counts on Sabouraud agar (Difco). Each group contained 10 animals.

Solubility = format: physicochemical
[5] = test system: Bacteroides fragilis ATCC 23745; test: MIC against Bacteroides fragilis, two-fold dilution method; format: cell-based; settings: ATCC23745, anaerobic, 48 hours at 37° C., Wilkins-Chalgren broth, approximately 10^4 CFU/ml
Description: A further experiment representative of the activity of purpuromycin against other anaerobic bacteria which are usually associated with infectious vaginitis utilized Bacteroides fragilis ATCC […] as the test microorganism. The experiment was carried out by the two-fold dilution method in microliter plates using Wilkins-Chalgren broth (Difco).
Inoculum size: approximately 10^4 colony forming units/ml. Incubation in an anerobic hood: 48 hours at 37° C. Purpuromycin was dissolved in DMSO and was added to the culture medium as above.

Gram-positive bacteria = settings: in vitro; cited from earlier work
Gram-negative bacteria = settings: in vitro; cited from earlier work
[6] = 12 strains tested, anaerobic, 48 hours at 37° C.
[7] = MIC >128 mcg/ml, 12 strains tested, anaerobic, 48 hours at 37° C.

**Q.** Which “effectiveness against Candida albicans infections” value (shortened to “effectiveness”) (Candida albicans) does the source give for `C[C@@H]1[C@H](O)[C@@H](C)/C=C/C=C/C=C/C=C/C=C/C=C/C=C/[C@H](O[C@@H]2O[C@H](C)[C@@H](O)[C@H](N)[C@@H]2O)C[C@@H]2O[C@](O)(C[C@@H](O)C[C@@H](O)[C@H](O)CC[C@@H](O)C[C@@H](O)CC(=O)O[C@H]1C)C[C@H](O)[C@H]2C(=O)O` [Amphotericin B] here?
**A.** effective

**Q.** For `Clc1ccccc1C(c1ccccc1)(c1ccccc1)n1ccnc1` [Clotrimazole], which “effectiveness” value (Candida albicans) is on record?
**A.** effective

**Q.** And the “NUMBER OF STRAINS WITH MIC OF 8” value (Gardnerella vaginalis [1]; [6])?
**A.** 2 strains

**Q.** And the “NUMBER OF STRAINS WITH MIC OF 16” value (Gardnerella vaginalis [1]; [6])?
**A.** 1 strains

**Q.** And the “NUMBER OF STRAINS WITH MIC OF 32” value (Gardnerella vaginalis [1]; [6])?
**A.** 2 strains

**Q.** And the “NUMBER OF STRAINS WITH MIC OF 64” value (Gardnerella vaginalis [1]; [6])?
**A.** 5 strains

**Q.** What about the “NUMBER OF STRAINS WITH MIC OF >128” value (Gardnerella vaginalis [1]; [7]) of the same compound?
**A.** 2 strains

**Q.** With `CC(=O)N1CCN(c2ccc(OCC3COC(Cn4ccnc4)(c4ccc(Cl)cc4Cl)O3)cc2)CC1` (centres unmarked) [Ketoconazole] as the compound, how does the “effectiveness” value (Candida albicans) read?
**A.** effective

**Q.** Which “activity against Trichomonas vaginalis” value (Trichomonas vaginalis) does the source give for `Cc1ncc([N+](=O)[O-])n1CCO` [Metronidazole] here?
**A.** active

**Q.** What about the activity against yeasts (yeasts) of the same compound?
**A.** not active

**Q.** What about the “NUMBER OF STRAINS WITH MIC OF 4” value (Gardnerella vaginalis [1]; [6]) of the same compound?
**A.** 1 strains

**Q.** And the “NUMBER OF STRAINS WITH MIC OF 8” value (Gardnerella vaginalis [1]; [6])?
**A.** 3 strains

**Q.** What about the “NUMBER OF STRAINS WITH MIC OF 16” value (Gardnerella vaginalis [1]; [6]) of the same compound?
**A.** 4 strains

**Q.** What about the “NUMBER OF STRAINS WITH MIC OF 64” value (Gardnerella vaginalis [1]; [6]) of the same compound?
**A.** 1 strains

**Q.** And the “NUMBER OF STRAINS WITH MIC OF 128” value (Gardnerella vaginalis [1]; MIC 128 mcg/ml, 12 strains tested, anaerobic, 48 hours at 37° C.)?
**A.** 3 strains

**Q.** What about the “activity against Gardnerella vaginalis” value (Gardnerella vaginalis [2]) of the same compound?
**A.** active

**Q.** What does the source list for `Clc1ccc(COC(Cn2ccnc2)c2ccc(Cl)cc2Cl)c(Cl)c1` (centres unmarked) [Miconazole]?
**A.** effectiveness against Candida albicans infections (Candida albicans): effective; MIC (Gardnerella vaginalis [1]; Gardnerella vaginalis, strains resistant to the agent, read-out: MIC (on resistant strains)): 128 µg/mL (≈ 308 µM); NUMBER OF STRAINS WITH MIC OF 4 (Gardnerella vaginalis [1]; [6]): 1 strains; NUMBER OF STRAINS WITH MIC OF 8 (Gardnerella vaginalis [1]; [6]): 7 strains; NUMBER OF STRAINS WITH MIC OF 32 (Gardnerella vaginalis [1]; [6]): 2 strains; NUMBER OF STRAINS WITH MIC OF >128 (Gardnerella vaginalis [1]; [7]): 2 strains

**Q.** Which “effectiveness” value (Candida albicans) does the source give for `C[C@@H]1[C@H](O)[C@@H](C)/C=C/C=C/CC/C=C/C=C/C=C/C=C/C(O[C@H]2O[C@H](C)[C@@H](O)[C@H](N)[C@@H]2O)CC2O[C@](O)(CC(O)C(O)CCC(O)CC(O)CC(O)CC(=O)O[C@H]1C)CC(O)C2C(=O)O` (some centres unmarked) [Nystatin] here?
**A.** effective

**Q.** What about the “NUMBER OF STRAINS WITH MIC OF >128” value (Gardnerella vaginalis [1]) of the same compound?
**A.** 12 strains

**Q.** Which activity against fungi [3] does the source give for `COC(=O)c1cc2cc3c(c(O)c2c(=O)o1)OC1(Cc2c(O)c4c(c(O)c2O1)C(=O)C(OC)=CC4=O)CC3O` (centres unmarked) [Purpuromycin] here?
**A.** active

**Q.** And the “Mean log10 CFU/smear sample ± SD” value ([4]; 2 mg/rat/treatment)?
**A.** 2.00 ± 0.75 log10 CFU/smear sample

**Q.** What about the “Mean log10 CFU/smear sample ± SD” value ([4]; 5 mg/rat/treatment, *P <0.01 vs group 1 controls) of the same compound?
**A.** 2.28 ± 0.78 log10 CFU/smear sample

**Q.** And the “numbers of viable yeast cells/sample” value ([4]; 2 or 5 mg/rat/treatment)?
**A.** significantly reduced

**Q.** What about the “solubility in lower alkanols” value (Solubility; lower alkanols) of the same compound?
**A.** practically unsoluble

**Q.** And the solubility in water (Solubility; water)?
**A.** practically unsoluble

**Q.** What about the MIC (Gardnerella vaginalis [1]; 48 h, all 12 Gardnerella vaginalis strains, read-out: concentration that inhibits the growth of all tested strains) of the same compound?
**A.** 8 µg/mL (≈ 14.9 µM)

**Q.** And the “NUMBER OF STRAINS WITH MIC OF 8” value (Gardnerella vaginalis [1]; [6])?
**A.** 12 strains

**Q.** What about the “activity on strains resistant to metronidazole, nystatin and miconozole” value (Gardnerella vaginalis [1]; resistant strains) of the same compound?
**A.** active

**Q.** And the MIC [5]?
**A.** 0.25 µg/mL (≈ 0.464 µM)

**Q.** What about the “activity against Gram-positive bacteria” value (Gram-positive bacteria) of the same compound?
**A.** active

**Q.** What about the “activity against Gram-negative bacteria” value (Gram-negative bacteria) of the same compound?
**A.** active

**Q.** For `CC1(C)S[C@@H]2[C@H](NC(=O)[C@H](N)c3ccccc3)C(=O)N2[C@H]1C(=O)O` [ampicillin], which “activity against Gardnerella vaginalis” value (Gardnerella vaginalis [2]) is on record?
**A.** active

**Q.** With `CC1=C(C(=O)O)N2C(=O)[C@@H](NC(=O)[C@H](N)c3ccccc3)[C@H]2SC1` [cefalexin] as the compound, how does the “activity against Gardnerella vaginalis” value (Gardnerella vaginalis [2]) read?
**A.** active

**Q.** With `CO[C@@]1(NC(=O)Cc2cccs2)C(=O)N2C(C(=O)O)=C(COC(N)=O)CS[C@@H]21` [cefoxitin] as the compound, how does the “activity against Gardnerella vaginalis” value (Gardnerella vaginalis [2]) read?
**A.** active

**Q.** Which “activity against Gardnerella vaginalis” value (Gardnerella vaginalis [2]) does the source give for `O=C(Cc1cccs1)N[C@@H]1C(=O)N2C(C(=O)[O-])=C(C[n+]3ccccc3)CS[C@H]12` [cephaloridine] here?
**A.** active

**Q.** Which “activity against Gardnerella vaginalis” value (Gardnerella vaginalis [2]) does the source give for `O=C(N[C@H](CO)[C@H](O)c1ccc([N+](=O)[O-])cc1)C(Cl)Cl` [chloramphenicol] here?
**A.** active

**Q.** For `CCC[C@@H]1C[C@@H](C(=O)N[C@@H]([C@H]2O[C@H](SC)[C@H](O)[C@@H](O)[C@H]2O)[C@H](C)Cl)N(C)C1` [clindamycin], which “activity against Gardnerella vaginalis” value (Gardnerella vaginalis [2]) is on record?
**A.** active

**Q.** Which “effectiveness” value (Candida albicans) does the source give for `Clc1ccc(COC(Cn2ccnc2)c2ccc(Cl)cc2Cl)cc1` (centres unmarked) [econozole] here?
**A.** effective

**Q.** With `CC[C@H]1OC(=O)[C@H](C)[C@@H](O[C@H]2C[C@@](C)(OC)[C@@H](O)[C@H](C)O2)[C@H](C)[C@@H](O[C@@H]2O[C@H](C)C[C@H](N(C)C)[C@H]2O)[C@](C)(O)C[C@@H](C)C(=O)[C@H](C)[C@@H](O)[C@]1(C)O` [erythromycin] as the compound, how does the “activity against Gardnerella vaginalis” value (Gardnerella vaginalis [2]) read?
**A.** active

**Q.** With `OC(Cn1cncn1)(Cn1cncn1)c1ccc(F)cc1F` [fluconazole] as the compound, how does the “effectiveness” value (Candida albicans) read?
**A.** effective

**Q.** Which “effectiveness” value (Candida albicans) does the source give for `CN(C)c1ccc(C(=C2C=CC(=[N+](C)C)C=C2)c2ccc(N(C)C)cc2)cc1` [gentian violet] here?
**A.** effective

**Q.** Which “activity against Gardnerella vaginalis” value (Gardnerella vaginalis [2]) does the source give for `CC1(C)S[C@@H]2[C@H](NC(=O)Cc3ccccc3)C(=O)N2[C@H]1C(=O)O` [penicillin G] here?
**A.** active

**Q.** Which “activity against Gardnerella vaginalis” value (Gardnerella vaginalis [2]) does the source give for `CN[C@@H]1[C@H](O)[C@H](NC)[C@H]2O[C@@]3(O)C(=O)C[C@@H](C)O[C@H]3O[C@@H]2[C@H]1O` [spectinomycin] here?
**A.** active

**Q.** For `Cc1cc(NS(=O)(=O)c2ccc(N)cc2)no1` [sulfamethoxazole], which “activity against Gardnerella vaginalis” value (Gardnerella vaginalis [2]) is on record?
**A.** active

**Q.** Which “activity against Gardnerella vaginalis” value (Gardnerella vaginalis [2]) does the source give for `CN(C)C1C(=O)C(C(N)=O)=C(O)C2(O)C(=O)C3=C(O)c4c(O)cccc4C(C)(O)C3CC12` (centres unmarked) [tetracycline] here?
**A.** active

**Q.** Which “activity against Trichomonas vaginalis” value (Trichomonas vaginalis) does the source give for `CCS(=O)(=O)CCn1c([N+](=O)[O-])cnc1C` [tinidazole] here?
**A.** active

**Q.** For candicidin, which “effectiveness” value (Candida albicans) is on record?
**A.** effective

**Q.** For gentamicin, which “activity against Gardnerella vaginalis” value (Gardnerella vaginalis [2]) is on record?
**A.** active

From patent US5141953A, “Purpuromycin for the treatment of vaginal infections and pharmaceutical dosage forms for said use” (Gruppo Lepetit S.p.A., priority 1989, dated 1992)
